This is an account of results in paper PMC9694494, “Resveratrol/Hydrazone Hybrids: Synthesis and Chemopreventive Activity against Colorectal Cancer Cells” (Pharmaceutics, 2022).

The subject of test [1] is SW480 cells. Briefly: Cell death induction (Annexin-V/FITC and PI flow cytometry), SW480. The settings on record: SW480, 48 h exposure. The test is classed as cell-based, human. The method, then:
(§1) Flow cytometric analysis using a double fluorescent staining with Annexin-V/FITC and propidium iodide (Roche Diagnostics) was used to evaluate phosphatidylserine exposure and membrane damage. Colon cancer cells (SW480 and SW620) were seeded at 2.5 × 10^5 in each 6-well plate and treated for 48 h. […] At the end of each treatment, cells were scraped and centrifuged. The pellet was resuspended in versene buffer with the fluorescent dyes and incubated for 20 min in darkness. Data were analyzed with FlowJo 7.6.2 (Ashland, OR, USA). Cells with double-positive staining for Annexin-V and PI were considered late apoptotic or dead cells, while the single staining with Annexin-V/FITC (Annexin-V/FITC positive) or propidium iodide (PI positive) was considered for early apoptotic or necrotic cells, respectively. Assays were performed twice.
(In flow cytometry, cells or beads pass a laser one at a time.)

Test [2] concerns SW620 cells. As to the kind of experiment: Cell death induction (Annexin-V/FITC and PI flow cytometry), SW620. In kind it is cell-based, human. The note with it: SW620, 48 h exposure. The method, then:
as §1

Test [3] has as its system SW620 cells. Briefly: Antiproliferative activity (SRB, 2-8 days), SW620. The test is classed as cell-based. The settings on record: Homo sapiens, read-out: Viability (%) ± SE; for viability at 3 µM: SW620, 3 µM; for viability at 6 µM: SW620, 6 µM; for viability at 12 µM: SW620, 12 µM; for viability at 24 µM: SW620, 24 µM; for viability at 48 µM: SW620, 48 µM. The method, then: The procedure for evaluating the antiproliferative activity was carried out using the same colorimetric test (SRB) described for cell viability, with minor modifications. Briefly, 2500 cells/well were seeded in 96-well tissue culture plates and incubated as in the previously described conditions for 0, 2, 4, 6, and 8 days. […] The culture medium was changed every 48 h. After each incubation time, cells were fixed, stained, and read as previously described for this technique.

The subject of test [4] is SW620 cells. Briefly: Cell cycle analysis (PI flow cytometry), SW620. In kind it is cell-based, human. The settings on record: SW620, 48 h treatment. The method, then:
Cell staining with the fluorescent propidium iodide (PI) was used to measure cell cycle distribution. The assays were carried out following the previous methodology described by Nicoletti et al. (1991). Briefly, 2.5 × 10^5 cells/well were seeded in 6-well tissue culture plates at 37 °C and 5% CO2. After 24 h of adherence, cells were treated during 48 h with hybrids 6e and 7, together with the vehicle control. At the end of each treatment, cells were scraped, and the centrifuged pellet was resuspended in 1.8 mL of 70% ethanol at 4 °C to fix the cells overnight. Then, after centrifugation, cells were washed twice in versene buffer to completely remove the alcohol, besides, they were further resuspended in 300 µL of PBS containing 0.25 mg/mL RNAse (Type I-A, Sigma-Aldrich, Darmstadt, Germany) and 0.1 mg/mL PI. After the incubation in the dark (for 30 min at room temperature), 10,000 events were analyzed with a FACS Canto II flow cytometer and the software BD FACS Diva 6.1.3. (BD Biosciences, San Jose, CA, USA). The PI fluorescence signal was analyzed with excitation at 488 nm (using a Sapphire laser), and detection at 610 nm. The cell cycle model was fixed with FlowJo 7.6.2 (Ashland, OR, USA), applying the Dean-Jett-Fox model.

Setting [5] is: SW-620, 48 h, 2 days after plating.
[6] abbreviates: SW-620, 96 h, 4 days after plating.
[7] abbreviates: SW-620, 144 h, 6 days after plating.
[8] abbreviates: SW-620, 192 h, 8 days after plating.

Like-named read-outs stand apart in the source and are kept apart here.

The term viability denotes a per cent measure of how many cells are alive, often set against a control.

For `O=C(N/N=C/c1c(O)cc(O)cc1/C=C/c1ccc(O)cc1)c1ccncc1` [compound 7, N′-((E)-2,4-dihydroxy-6-((E)-4-hydroxystyryl)benzylidene)isonicotinohydrazide], the “plasma membrane integrity (PI positive staining)” value in test [1] is “induced plasma membrane disintegration”. For the same compound, in test [2], the “plasma membrane integrity (PI positive staining)” value was “induced plasma membrane disintegration”. For the same compound, in test [3] (setting [5]), the viability at 3 µM is 89.3 ± 1.65%, the viability at 6 µM turned out to be 88 ± 2.48%, the viability at 12 µM came out at 67.82 ± 0.4% and the viability at 24 µM came to 45.21 ± 0.38%. For the same compound, the viability at 48 µM in test [3] (setting [5]) was 41.5 ± 3.3%. In test [3] (setting [6]), the viability at 3 µM was determined as 87.29 ± 0.75%, the viability at 6 µM is 72.4 ± 0.9%, the viability at 12 µM was determined as 33 ± 1.8% and the viability at 24 µM was 27.8 ± 2.96%. Also, in test [3] (setting [6]), the viability at 48 µM was 6.31 ± 0.74%. In addition, in test [3] (setting [7]), the viability at 3 µM was determined as 59.2 ± 2.77%, the viability at 6 µM was found to be 43.4 ± 0.48%, the viability at 12 µM amounted to 17.8 ± 0.3% and the viability at 24 µM was 8.13 ± 1.48%. The viability at 48 µM in test [3] (setting [7]) was 0.26 ± 0.07%. For the same compound, in test [3] (setting [8]), the viability at 3 µM stood at 46.55 ± 0.03%, the viability at 6 µM stood at 38.53 ± 0.28%, the viability at 12 µM was 5.53 ± 0.11% and the viability at 24 µM was 3.93 ± 0.59%. Moreover, the viability at 48 µM in test [3] (setting [8]) came to 0%. In addition, in test [4], the “Cell cycle distribution Sub G0/G1” value is 20.60%.
